We go through one compound from patent US9636409B2, “Enzyme and receptor modulation using covalent conjugates of alpha,alpha-disubstituted glycine esters” (GlaxoSmithKline Intellectual Property Development Limited, priority 2008, dated 2017).

Read-outs that look alike come from different tables or passages of the source.

Data set [1] concerns cell lysate from U937 cells. Description: Broken cell carboxylesterase assay (U937 cell extract). The class given is in vitro ADME. The conditions noted are these: ester 2.5 μM. The method, then:
Broken Cell Carboxylesterase Assay
Any given compound of the present invention wherein ester conjugate according to the invention may be tested to determine whether it meets the requirement that it be hydrolysed by intracellular esterases, by testing in the following assay.
Preparation of Cell Extract
U937 or HCT 116 tumour cells (˜10^9) were washed in 4 volumes of Dulbeccos PBS (˜1 liter) and pelleted at 525 g for 10 min at 4° C. This was repeated twice and the final cell pellet was re-suspended in 35 mL of cold homogenising buffer (Trizma 10 mM, NaCl 130 mM, CaCl2 0.5 mM pH 7.0 at 25° C.). Homogenates were prepared by nitrogen cavitation (700 psi for 50 min at 4° C.). The homogenate was kept on ice and supplemented with a cocktail of inhibitors at final concentrations of: • Leupeptin 1 μM • Aprotinin 0.1 μM • E64 8 μM • Pepstatin 1.5 μM • Bestatin 162 μM • Chymostatin 33 μM
After clarification of the cell homogenate by centrifugation at 525 g for 10 min, the resulting supernatant was used as a source of esterase activity and was stored at −80° C. until required. […]
Hydrolysis of esters to the corresponding carboxylic acids can be measured using the cell extract, prepared as above. […] After centrifugation at 12000 g for 5 min, samples were analysed for the ester and its corresponding carboxylic acid at room temperature by LCMS (Sciex API 3000, HP1100 binary pump, CTC PAL). […]

Data set [2] relates to phosphorylation of MAPKAP-2 in U937 cells. Description: p38 MAP Kinase cellular assay: inhibition of phosphorylation of MAPKAP2 in U937 cells. The format is cell-based. Particulars: for IC50: Homo sapiens, U-937. As for the experimental part: (§1) p38 MAP Kinase Cellular Assay: Inhibition of Phosphorylation of MAPKAP2
(§2) U937 or HUT78 cells were plated in RPMI 1640, and were incubated at 37° C., 5% CO2 for 18 hours. 10 mM stocks of compounds were diluted media/0.1% DMSO to give a log or semi-log dilution series. The wells for ‘no treatment’ and ‘anisomycin’ were treated with 0.1% DMSO only. The cells were incubated at 37° C., 5% CO2 for a further 4 hours. Anisomycin was added to all wells except ‘no treatment’ at a final concentration of 10 μM. The cells were incubated at 37° C., 5% CO2 for 30 minutes before harvest. Plates were stood on ice whilst harvesting, and all following steps were carried out at 4° C. The cells were pelleted at 1000 rpm for 10 minutes at 4° C., the media aspirated, and the pellet washed with cold PBS. The pellets were lysed in 120 μl of SDS lysis buffer (62.5 mM Tris, pH 6.8, 2% SDS, 10% glycerol, 50 mM DTT, with protease inhibitors and phosphatase inhibitors added according to the manufacturers' recommendations). After 30 minutes on ice, the samples were sonicated for 5 seconds before centrifugation at 13,000 rpm 4° C. for 10 minutes to remove cell debris. 10 μl of the resulting gel samples were loaded per lane on NOVEX 4-12% Bis-Tris MOPS gels. Membranes from western transfer of gels were blotted with anti-phospho MAPKAP2, anti-phospho HSP27 and anti GAPDH according to the manufacturers' Instructions. Signal was visualised using HRP-Hnked anti-rabbit or anti-mouse antibodies, ECL reagent and ECL film. IC50 values for the various compounds were visualised from the resulting photographic images, using both band-shift and signal intensity.

Data set [3] concerns phosphorylation of MAPKAP-2 in HUT 78 cells. As to the kind of experiment: p38 MAP Kinase cellular assay: inhibition of phosphorylation of MAPKAP2 in HUT 78 cells. The class given is cell-based. Particulars: Table 2. The method, then:
as §1, §2

The next data set deals with T1, recombinant hCE-1 (Homo sapiens, UniProt P23141).
T1 sequence (P23141 18-567): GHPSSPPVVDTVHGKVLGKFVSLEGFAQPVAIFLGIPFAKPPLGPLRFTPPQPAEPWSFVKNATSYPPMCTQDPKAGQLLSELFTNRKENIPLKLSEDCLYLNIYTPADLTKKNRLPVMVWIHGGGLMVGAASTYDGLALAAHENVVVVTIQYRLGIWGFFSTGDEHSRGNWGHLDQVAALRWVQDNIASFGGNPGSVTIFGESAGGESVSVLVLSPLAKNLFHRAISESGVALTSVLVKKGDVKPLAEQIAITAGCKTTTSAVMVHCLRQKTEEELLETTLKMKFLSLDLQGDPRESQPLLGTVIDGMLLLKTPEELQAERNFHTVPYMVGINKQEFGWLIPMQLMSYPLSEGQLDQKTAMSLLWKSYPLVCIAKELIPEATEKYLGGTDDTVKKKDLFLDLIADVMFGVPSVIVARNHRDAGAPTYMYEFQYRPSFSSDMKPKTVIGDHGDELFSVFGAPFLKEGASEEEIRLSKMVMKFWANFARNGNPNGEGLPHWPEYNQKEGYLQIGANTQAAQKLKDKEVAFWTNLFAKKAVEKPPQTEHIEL
As to the kind of experiment: HCE-1 carboxylesterase assay. Particulars: result in words. The class given is in vitro ADME. As for the experimental part:
HCE-1 Carboxylesterase Assay
Hydrolysis of esters to the corresponding carboxylic acids by hCE-1 can be measured using the following procedure. At zero time, 100 μl of recombinant hCE-1 at a concentration of 6 μg/mL in phosphate assay buffer (K2PO4 100 mM, KCl 40 mM, pH 7.4) was added to an equal volume of assay buffer containing 5 μM ester substrate. After thorough mixing, triplicate samples were incubated for 0, 20 or 80 minutes at 37° C. At the appropriate time, hydrolysis was stopped by the addition of 600 μl of acetonitrile. For zero time samples, the acetonitrile was added prior to the enzyme. The samples were analysed for the ester and its corresponding carboxylic acid at room temperature by LCMS (Sciex API 3000, HP1100 binary pump, CTC PAL). Chromatography was based on a […] (75×2.1 mm) column and a mobile phase of 5-95% acetonitrile in water/0.1% formic add. Levels of the acid, the hydrolysis product, after 80 minutes are expressed in ng/mL.

`CC(C)(NCCc1ccc(-n2c(N)c(C(=O)c3ccc(F)cc3F)ccc2=O)cc1)C(=O)OC1CCCC1` [Example 1]: the “Cleavage by cell lysate from U937 cells” value in data set [1] is recorded as 165 pg/mL/min. Further, the 50% inhibitory concentration (IC50) (as a rule, the concentration that inhibits the measured activity by half) in data set [2] (Table 1 (biology), U937 cells, read-out: Inhibition of phosphorylation of MAPKAP-2 in U937 cells (IC50)) came to 10 nM; in data set [2] (Table 2, U937 monocyte cell line, read-out: Inhibition of phosphorylation of MAPKAP-2 in U937 cells (IC50, nM) (monocyte cell line)), 10 nM; in data set [3] (Homo sapiens, HuT78, HUT 78 non-monocyte cell line), 1000 nM. The “Ratio cell IC50s to enzyme IC50” value in data set [2] (U937 MAPKAP-2 IC50 to P38 enzyme IC50) was 0.2. Moreover, the “potency in monocytic versus non monocytic cell lines (MAPKAP-2 phosphorylation)” value in data set [2] (U937 versus HUT 78) was found to be 100 times. The “potency in the p38 cellular assay compared with the parent compound” value in data set [2] (versus Compound I) is listed as “significantly more potent than the parent compound”. Also, in data set [3] (MAPKAP-2 phosphorylation IC50s), the “Ratio IC50s in HUT 78 to U937 cells” value was determined as 100. The “hydrolysis by hCE-1” value at recombinant hCE-1 was “hydrolysed by hCE-1”.
